The structures appear in SMILES notation.

The term IC50 denotes the midpoint of a concentration-inhibition curve. The term inhibition denotes the percentage by which the read-out fell short of the control. Lower therefore signals little suppression.

For one assay, the system named is VM21 melanoma cells. Briefly: MTT colorimetric assay, overall cell growth, VM21. Format: cell-based, human. As to conditions: Homo sapiens; MTT, 72 hours of incubation; read-out: In Vitro IC50 Growth Inhibitory Values, VM21. The procedure, abridged: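 Growth is measured as remaining living cells relative to untreated controls after 72 h at 37 °C with compound at 10^-8 to 10^-4 M. Readout is MTT formazan absorbance at 570 nm.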
On the technique in general: Formazan colour is commonly taken as a measure of viable cells.

The next assay relates to VM48 melanoma cells. Kind of assay: MTT colorimetric assay, overall cell growth, VM48. It is filed as cell-based, human. As to conditions: Homo sapiens; MTT, 72 hours of incubation; read-out: In Vitro IC50 Growth Inhibitory Values, VM48.
A further assay concerns U373-MG glioma cell line. Briefly: Cellular imaging (quantitative videomicroscopy), global growth ratio, U373. Format: cell-based. The following applies: Homo sapiens, 50 μM, 72 h, read-out: Global Grow Ratio Treated/Ct (GGR T/Ct) determined by Video Quantitative microscopy, U373. From the text: (§1) As the MTT test is based on the mitochondria functions, we also investigated the effects of the di- and tri-vanilloyl derivatives according to the invention on cell proliferation, migration and morphology by means of a cellular imaging approach (Debeir et al., Cytometry 60:29-40, 2004; Debeir et al., IEEE Trans Med Imaging 24:697-711, 2005) either in the human U373-MG glioma cell line, which is apoptosis-resistant but autophagy-sensitive (Lefranc F et al., Neurosurgery 2008) and in the human A549 non-small-cell-lung cancer cell line, which is apoptosis-resistant and autophagy-resistant (Mijatovic T et al., Neoplasia 2006, May; 8(5):402-12).
(§2) Investigations have also been performed in human normal fibroblasts (WS1 and WI38—see Tables 4 and 5). Cellular imaging relied on the use of computer-assisted phase-contrast microscopy making possible to film the behaviour of living cells in culture dishes for several days.
(§3) Cells were seeded in a 25-cm^2 flask at a low density, treated or not with the vanilloyl-esters invention (at a concentration of 50 μM) and filmed thereafter for a period of 72 h. The experiment was conducted in quadruplicates (in duplicates for DLT-95 compounds).
(§4) The behaviour of the cells, in terms of morphology, growth and death were thus investigated. The effect on the overall growth was measured by counting the number of cells on the first (0 h) and the last image (72 h) of each film. The global growth ratio (GGR) was then deduced by dividing the number of cells on the last image by the number of cells on the first image. The ratio GGRtreated cells/GGRcontrol cells, was further calculated thereby obtaining a value that describes the effect of compounds of the present invention on the overall cell growth. The methodology is fully described and validated in Debeir et al., 2008, Exp Cell Res 314:2985-2998 and Mathieu et al., 2009, J Cell Mol Med, Feb. 20, 2009.
(§5) Illustrative pictures (time=0 h and 72 h) of glioblastoma and normal fibroblast cell line left untreated or treated with poly-vanillic compounds according to the invention (50 μM) are provided in FIG. 1 (U373 glioblastoma) and FIG. 2 (normal fibroblasts). The GGR parameter analyses confirmed the marked impairment of cell growth in both cancer cell lines of the poly-vanillic compounds according to the invention (Table 5).

Assay [1] deals with A549 non-small-cell-lung cancer cell line. Kind of assay: Cellular imaging (quantitative videomicroscopy), global growth ratio, A549. Format: cell-based. As to conditions: Homo sapiens, 72 h, read-out: Global Grow Ratio Treated/Ct (GGR T/Ct) determined by Video Quantitative microscopy, A549.
Source text: as §1, §2, §3, §4, §5

Another assay has as its target T1, CDK5/p25 (Homo sapiens, UniProt Q00535).
T1 construct: made in house
Briefly: Kinase activity assay, CDK5. It is filed as biochemical. As to conditions: 10 μM, 1% DMSO, 15 μM ATP; residual activity. As for the experimental part: (§6) Buffer A: 10 mM MgCl2, 1 mM EGTA, 1 mM DTT, 25 mM Tris-HCl pH 7.5, 50 μg heparin/ml. Buffer C: 60 mM β-glycerophosphate, 15 mM p-nitrophenylphosphate, 25 mM Mops (pH 7.2), 5 mM EGTA, 15 mM MgCl2, 1 mM DTT, 1 mM sodium vanadate, 1 mM phenyl phosphate.
(§7) Kinase activities were assayed in Buffer A or C, at 30° C., at a final ATP concentration of 15 μM. Blank values were subtracted and activities expressed in % of the maximal activity, i.e. in the absence of inhibitors. Controls were performed with appropriate dilutions of DMSO.
(§8) CDK1/cyclin B (M phase starfish oocytes, native), CDK2/cyclin A, CDK2/cyclin E, CDK5/p25 and CDK7/cyclin H (human, recombinant) were prepared as previously described (Leclerc et al., 2001, J. Biol. Chem. 2001, 276, 251-260; Bach et al., 2005, J Biol Chem 280: 31208-31219). Their kinase activity was assayed in buffer C, with 1 mg histone H1/ml, in the presence of 15 μM [gamma-^33P] ATP (3,000 Ci/mmol; 10 mCi/ml) in a final volume of 30 μl. After 30 min incubation at 30° C., 25 μl aliquots of supernatant were spotted onto 2.5×3 cm pieces of Whatman P81 phosphocellulose paper, and, 20 sec later, the filters were washed five times (for at least 5 min each time) in a solution of 10 ml phosphoric acid/liter of water. The wet filters were counted in the presence of 1 ml ACS (Amersham) scintillation fluid.

For a further assay, the system named is GSK-3. Kind of assay: Kinase activity assay, GSK3. It is filed as biochemical, porcine. The following applies: 10 μM, 1% DMSO, 15 μM ATP; residual activity. As for the experimental part: as §6, §7
GSK-3 (porcine brain, native) was assayed, as described for CDK1 but in Buffer A and using a GSK-3 specific substrate (GS-1: […]pEDEEE) (Seq. ID NO 1) (pS stands for phosphorylated serine) (Primot et al., 2000, Protein Expr. & Purif. 20 (3), 394-404). GS-1 was synthesized by Millegen (Labege, France).

The target in another assay is pfGSK3 (Plasmodium falciparum, UniProt O77344). Briefly: Kinase activity assay, pfGSK3. It is filed as biochemical. The following applies: 10 μM, 1% DMSO, 15 μM ATP; residual activity. As for the experimental part:
as §6, §7

The test system of the next assay is CK1. Briefly: Kinase activity assay, CK1. It is filed as biochemical, porcine. As to conditions: 10 μM, 1% DMSO, 15 μM ATP; residual activity. How it is done:
as §6, §7
CK1 (porcine brain, native) was assayed as described for CDK1 but using the CK1-specific peptide substrate […]pSAYSITA (Seq. ID NO 2) (Reinhardt et al., 2007, Protein Expr. & Purif. 54, 101-109), obtained from Millegen (Labege, France).

The target of a further assay is DYRK1A (Rattus norvegicus, UniProt Q63470). Kind of assay: Kinase activity assay, DYRK1A (GST fusion, myelin basic protein substrate). It is filed as biochemical. How it is done: as §6, §7
DYRK1A (rat, recombinant, expressed in E. coli as a GST fusion protein) was purified by affinity chromatography on glutathione-agarose and assayed as described for CDK1/cyclin B using myelin basic protein (1 mg/ml) as a substrate.

Another assay deals with Erk2 (Rattus norvegicus, UniProt P63086). Kind of assay: Kinase activity assay, Erk2. It is filed as biochemical. The following applies: 10 μM, 1% DMSO, 15 μM ATP; residual activity. As for the experimental part:
as §6, §7
Erk2 (rat, recombinant) was assayed as described for CDK1 but using the specific substrate Ets1 (amino acids 1-138) in buffer A.

The next assay has as its target T2, CDK2/cyclin A (Homo sapiens, UniProt P24941).
T2 construct: made in house
Kind of assay: Kinase activity assay, CDK2A. It is filed as biochemical. The following applies: 10 μM, 1% DMSO, 15 μM ATP; residual activity. How it is done:
as §6, §7, §8

The next assay has as its system WI38 normal fibroblasts. Briefly: Cellular imaging (quantitative videomicroscopy), global growth ratio, WI38. It is filed as cell-based, human. The following applies: 50 μM, 72 h.
Source text: as §1
(§9) Investigations have also been performed in human normal fibroblasts (WS1 and WI38—see Tables 4 and 5). Cellular imaging relied on the use of computer-assisted phase-contrast microscopy making possible to film the behaviour of living cells in culture dishes for several days. […]
(§10) The behaviour of the cells, in terms of morphology, growth and death were thus investigated. The effect on the overall growth was measured by counting the number of cells on the first (0 h) and the last image (72 h) of each film. […] The ratio GGRtreated cells/GGRcontrol cells, was further calculated thereby obtaining a value that describes the effect of compounds of the present invention on the overall cell growth. […]

The next assay relates to WS1 normal fibroblasts. Briefly: Cellular imaging (quantitative videomicroscopy), global growth ratio, WS1. It is filed as cell-based, human. The following applies: 50 μM, 72 h.
Source text: as §1, §9, §10

For a further assay, the system named is cancer cell lines. Kind of assay: Flow cytometry analyses of pro-autophagic and pro-apoptotic effects. It is filed as cell-based, human. As to conditions: cancer cell lines studied. An excerpt:
(§11) The compounds of the invention were subsequently evaluated for their 1) anti-proliferative effect (by means of the colorimetric MTT assay), 2) pro-autophagic and pro-apoptotic effect (by means of flow cytometry analyses), and 3) anti-migratory effect (by means of quantitative videomicroscopy), in the following human cancer cell-lines: a) U373, T98G and Hs683 glioblastoma cells, b) VM21 and VM48 melanoma cells, c) PC-3 prostate cancer cells, d) MCF-7 breast cancer cells, e) LoVo colon cancer cells, f) OE21 oesophageal cancer cells, and g) A549 NSCLC cancer cells, as well as in human WS1 and WI38 normal fibroblasts (i.e. non-cancer cells).

Assay [2] has as its system cancer cells versus normal fibroblasts. Briefly: Anti-proliferative, anti-migratory and anti-kinase effects, cancer cells versus normal fibroblasts. The following applies: anti-proliferative. It is filed as cell-based, human.
Source text: as §11
The best current hits, DLT12 and DLT4, display anti-proliferative, anti-migratory effects and anti-kinase effects which are ˜10 times more pronounced in cancer cells than in normal fibroblasts. […] FIG. 1 illustrates the data obtained with respect to the human U373 glioblastoma model, while FIG. 2 illustrates the data obtained in human normal fibroblasts. […] DLT-95 and its derivatives DLT-95-F and DLT-95-Cl were also shown to have a significant effect on the proliferation 7 different human cancer cell-lines.

Chain of Erk2 (P63086 whole entry): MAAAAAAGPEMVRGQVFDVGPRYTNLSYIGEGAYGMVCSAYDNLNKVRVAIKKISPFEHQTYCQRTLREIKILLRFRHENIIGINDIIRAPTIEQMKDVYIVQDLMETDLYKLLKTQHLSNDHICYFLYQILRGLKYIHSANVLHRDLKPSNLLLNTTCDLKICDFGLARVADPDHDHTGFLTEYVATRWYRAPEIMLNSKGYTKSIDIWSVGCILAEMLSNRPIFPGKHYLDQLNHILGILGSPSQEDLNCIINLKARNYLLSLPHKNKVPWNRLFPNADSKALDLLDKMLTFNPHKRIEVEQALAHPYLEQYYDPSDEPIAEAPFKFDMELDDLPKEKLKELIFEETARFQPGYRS
T1 sequence (Q00535 whole entry): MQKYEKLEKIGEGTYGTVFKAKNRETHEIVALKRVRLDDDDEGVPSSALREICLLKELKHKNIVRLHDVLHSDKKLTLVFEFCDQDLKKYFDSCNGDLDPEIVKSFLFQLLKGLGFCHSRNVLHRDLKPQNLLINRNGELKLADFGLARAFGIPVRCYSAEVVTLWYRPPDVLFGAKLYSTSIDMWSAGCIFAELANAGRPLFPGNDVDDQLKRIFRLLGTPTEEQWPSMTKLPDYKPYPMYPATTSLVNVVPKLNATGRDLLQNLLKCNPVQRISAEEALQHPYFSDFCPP
T1 sequence (Q15078 99-307 partner limits assumed): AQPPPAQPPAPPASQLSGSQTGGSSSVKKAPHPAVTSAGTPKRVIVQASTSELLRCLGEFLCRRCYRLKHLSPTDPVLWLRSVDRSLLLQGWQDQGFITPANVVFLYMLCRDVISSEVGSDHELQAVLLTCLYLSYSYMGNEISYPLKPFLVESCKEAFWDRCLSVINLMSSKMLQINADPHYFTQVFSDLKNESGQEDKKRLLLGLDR
Chain of pfGSK3 (O77344 1-440): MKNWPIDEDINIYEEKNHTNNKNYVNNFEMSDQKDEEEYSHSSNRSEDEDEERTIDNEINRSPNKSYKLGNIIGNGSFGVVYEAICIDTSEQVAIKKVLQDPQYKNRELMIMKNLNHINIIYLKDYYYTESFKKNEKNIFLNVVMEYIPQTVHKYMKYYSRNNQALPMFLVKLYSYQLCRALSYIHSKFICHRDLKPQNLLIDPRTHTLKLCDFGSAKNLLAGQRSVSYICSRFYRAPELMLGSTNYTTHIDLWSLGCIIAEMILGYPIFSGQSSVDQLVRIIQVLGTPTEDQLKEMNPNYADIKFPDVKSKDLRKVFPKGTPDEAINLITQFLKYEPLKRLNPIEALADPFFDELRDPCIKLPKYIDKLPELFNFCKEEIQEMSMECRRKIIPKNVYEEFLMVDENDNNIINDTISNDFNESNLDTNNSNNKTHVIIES

On to `COc1cc(C(=O)OC2CCCC(OC(=O)c3ccc(O)c(OC)c3)C2)ccc1O` (mixture of isomers) [DLT5, cis/trans-cyclohexane-1,3-diyl bis-(4-hydroxy-3-methoxybenzoate)], for which the IC50 in the assay with VM21 melanoma cells and with VM48 melanoma cells was 47 µM throughout. Moreover, the figures for the activity at 50 µM (with U373-MG glioma cell line; in assay [1]) were 20% and 10%, respectively. Also, the “% ENZYMATIC ACTIVITY, CDK5” value at CDK5/p25 was 95%. In the assay with GSK-3, the “% ENZYMATIC ACTIVITY, GSK3” value is 81%. Moreover, the “% ENZYMATIC ACTIVITY, pfGSK3” value on pfGSK3 is 89%. For the same compound, in the assay with CK1, the “% ENZYMATIC ACTIVITY, Ckone” value is 73%. In addition, 10 µM produced 26% inhibition against DYRK1A. Moreover, the “% ENZYMATIC ACTIVITY, Dyrk1A” value on DYRK1A (10 μM, 1% DMSO, 15 μM ATP, residual activity) was 74%. In addition, on Erk2, the “% ENZYMATIC ACTIVITY, Erk2” value turned out to be 92%. Moreover, on CDK2/cyclin A, the “% ENZYMATIC ACTIVITY, CDK2A” value is given as 100%.
In the case of `COc1cc(C(=O)O[C@@H]2CCCC[C@H]2OC(=O)c2ccc(O)c(OC)c2)ccc1O` (racemic) [DLT4, trans-cyclohexane-1,2-diyl bis-(4-hydroxy-3-methoxybenzoate)], the activity at 50 µM (in the assay with U373-MG glioma cell line; in [1]) was 20% each time. Also, the “Global Grow Ratio Treated/Ct (GGR T/Ct) determined by Video Quantitative microscopy, WI38” value in the assay with WI38 normal fibroblasts amounted to 0.9. The “Global Grow Ratio Treated/Ct (GGR T/Ct) determined by Video Quantitative microscopy, WS1” value in the assay on WS1 normal fibroblasts was 1.0. Moreover, in the assay with cancer cell lines, the “pro-autophagic or pro-apoptotic effects” value is “does not induce pro-autophagic or pro-apoptotic effects”. The “effects more pronounced in cancer cells than in normal fibroblasts” value in assay [2] is approximately 10 times.

The record behind these values is patent publication US20110280940A1, “Di-Vanilloyl And Tri-Vanilloyl Derivatives For Use In Anti-Cancer Therapy” (priority 2008, published 2011).
